# According to patent EP4631960A1, “PEPTIDE HAVING INHIBITORY ACTIVITY AGAINST OSTEOCLAST DIFFERENTIATION, AND USE THEREOF” (Caregen Co., Ltd., priority 2022, dated 2024):
# Peptide text beside a SMILES is read from it.
# Test system: RAW264.7 cells
# Experiment: CCK-8 cytotoxicity evaluation
# Type: cell-based
# Conditions: CCK-8 activity at 450 nm, after 3 days, FIG. 3
# Description: Then, after 3 days, CCK-8 (Dojindo, CCK-8 kit) solution was added to 1/10 volume of the culture medium, diluted, and incubated for 2 hours. Thereafter, the culture medium was sampled and CCK-8 activity was confirmed at a wavelength of 450 nm using a microplate reader.
compound,measurement,value
"CC[C@H](C)[C@H](N)C(=O)N[C@H](C(=O)N[C@@H](C)C(=O)N1CCC[C@H]1C(=O)N[C@H](C(=O)NCC(=O)N[C@@H](Cc1ccc(O)cc1)C(=O)N[C@@H](Cc1ccc(O)cc1)C(=O)NCC(=O)N[C@@H](CC(N)=O)C(=O)O)[C@@H](C)O)[C@@H](C)CC [Peptide-2, IIAPTGYYGN] (H-IIAPTGYYGN-OH)",cytotoxicity,did not exhibit cytotoxicity
